# Measured values taken from PubChem BioAssay AID1259407 (Chemical Carcinogenesis Research Information System (CCRIS), 2018).
# Active and inactive are the calls of the source. No rule for the calls is given here.
# Tested on: CCRIS mutagenicity, Ames/micronucleus/aberration tests
# Test: CCRIS mutagenicity studies
# [1] = Test System: AMES SALMONELLA TYPHIMURIUM, Strain/Indicator: TA100, Metabolic Activation: NONE, Method: PREINCUBATION
# [2] = Test System: AMES SALMONELLA TYPHIMURIUM, Strain/Indicator: TA100, Metabolic Activation: RAT, LIVER, S-9, AROCLOR 1254 (10%), Method: PREINCUBATION
# [3] = Test System: AMES SALMONELLA TYPHIMURIUM, Strain/Indicator: TA1535, Metabolic Activation: HAMSTER, LIVER, S-9, AROCLOR 1254 (10%), Method: PREINCUBATION
# [4] = Test System: AMES SALMONELLA TYPHIMURIUM, Strain/Indicator: TA1535, Metabolic Activation: NONE, Method: PREINCUBATION
# [5] = Test System: AMES SALMONELLA TYPHIMURIUM, Strain/Indicator: TA1535, Metabolic Activation: RAT, LIVER, S-9, AROCLOR 1254 (10%), Method: PREINCUBATION
# [6] = Test System: AMES SALMONELLA TYPHIMURIUM, Strain/Indicator: TA98, Metabolic Activation: NONE, Method: STANDARD PLATE
# [7] = Test System: AMES SALMONELLA TYPHIMURIUM, Strain/Indicator: TA100, Metabolic Activation: NONE, Method: STANDARD PLATE
# [8] = Test System: E. COLI, Strain/Indicator: WP2 UVRA, Metabolic Activation: NONE, Method: STANDARD PLATE
smiles,measurement,setting,value
NC1c2ccccc2-c2ccccc21,mutagenic call,"Test System: AMES SALMONELLA TYPHIMURIUM, Strain/Indicator: TA98, Metabolic Activation: RAT, LIVER, S-9, AROCLOR 1254 (2 OR 4%), Method: STANDARD PLATE",inactive; negative
same,mutagenic call,"Test System: AMES SALMONELLA TYPHIMURIUM, Strain/Indicator: TA100, Metabolic Activation: RAT, LIVER, S-9, AROCLOR 1254 (2%), Method: STANDARD PLATE",inactive; negative
same,mutagenic call,"Test System: AMES SALMONELLA TYPHIMURIUM, Strain/Indicator: TA1535, Metabolic Activation: RAT, LIVER, S-9, AROCLOR 1254 (2%), Method: STANDARD PLATE",inactive; negative
same,mutagenic call,"Test System: AMES SALMONELLA TYPHIMURIUM, Strain/Indicator: TA1537, Metabolic Activation: RAT, LIVER, S-9, AROCLOR 1254 (2%), Method: STANDARD PLATE",inactive; negative
CCCCCCOCC1CO1 (stereo not given),mutagenic call,[1],active; positive
same,mutagenic call,[2],inactive; negative
same,mutagenic call,[3],active; positive
same,mutagenic call,[4],active; positive
same,mutagenic call,[5],active; positive
Nc1snc2c(Cl)cc(Cl)cc12,mutagenic call,[6],inactive; negative
same,mutagenic call,"Test System: AMES SALMONELLA TYPHIMURIUM, Strain/Indicator: TA98, Metabolic Activation: S-9, Method: STANDARD PLATE",inactive; negative
same,mutagenic call,[7],inactive; negative
same,mutagenic call,"Test System: AMES SALMONELLA TYPHIMURIUM, Strain/Indicator: TA100, Metabolic Activation: S-9, Method: STANDARD PLATE",active; positive
same,mutagenic call,"Test System: AMES SALMONELLA TYPHIMURIUM, Strain/Indicator: TA1535, Metabolic Activation: NONE, Method: STANDARD PLATE",inactive; negative
same,mutagenic call,"Test System: AMES SALMONELLA TYPHIMURIUM, Strain/Indicator: TA1535, Metabolic Activation: S-9, Method: STANDARD PLATE",inactive; negative
same,mutagenic call,"Test System: AMES SALMONELLA TYPHIMURIUM, Strain/Indicator: TA1537, Metabolic Activation: NONE, Method: STANDARD PLATE",inactive; negative
same,mutagenic call,"Test System: AMES SALMONELLA TYPHIMURIUM, Strain/Indicator: TA1537, Metabolic Activation: S-9, Method: STANDARD PLATE",active; positive
COc1cc2c3c(c1O)-c1cc4c(cc1C[C@@H]3N(C)CC2)OCO4,mutagenic call,"Test System: AMES SALMONELLA TYPHIMURIUM, Strain/Indicator: TA100, Metabolic Activation: RAT, LIVER, S-9, PHENOBARBITAL AND BETA-NAPHTHOFLAVONE, Method: PREINCUBATION",inactive; negative
Nc1cc(S(=O)(=O)[O-])cc2c1C(=O)/C(=N\Nc1ccc(-c3ccc(N/N=C4\C(=O)c5c(N)cc(S(=O)(=O)[O-])cc5C=C4S(=O)(=O)[O-])c(O)c3)cc1O)C(S(=O)(=O)[O-])=C2.[Cu].[Cu].[Na+].[Na+].[Na+].[Na+],mutagenic call,"Test System: AMES SALMONELLA TYPHIMURIUM, Strain/Indicator: TA98, Metabolic Activation: HAMSTER, LIVER, S-9, AROCLOR 1254 (10%), Method: PREINCUBATION",inactive; negative
same,mutagenic call,"Test System: AMES SALMONELLA TYPHIMURIUM, Strain/Indicator: TA98, Metabolic Activation: NONE, Method: PREINCUBATION",inactive; negative
same,mutagenic call,"Test System: AMES SALMONELLA TYPHIMURIUM, Strain/Indicator: TA98, Metabolic Activation: RAT, LIVER, S-9, AROCLOR 1254 (10%), Method: PREINCUBATION",inactive; negative
same,mutagenic call,"Test System: AMES SALMONELLA TYPHIMURIUM, Strain/Indicator: TA100, Metabolic Activation: HAMSTER, LIVER, S-9, AROCLOR 1254 (10%), Method: PREINCUBATION",inactive; negative
same,mutagenic call,[1],inactive; negative
same,mutagenic call,[2],inactive; negative
same,mutagenic call,[3],inactive; negative
same,mutagenic call,[4],inactive; negative
same,mutagenic call,[5],inactive; negative
same,mutagenic call,"Test System: AMES SALMONELLA TYPHIMURIUM, Strain/Indicator: TA1537, Metabolic Activation: HAMSTER, LIVER, S-9, AROCLOR 1254 (10%), Method: PREINCUBATION",inactive; negative
same,mutagenic call,"Test System: AMES SALMONELLA TYPHIMURIUM, Strain/Indicator: TA1537, Metabolic Activation: NONE, Method: PREINCUBATION",inactive; negative
same,mutagenic call,"Test System: AMES SALMONELLA TYPHIMURIUM, Strain/Indicator: TA1537, Metabolic Activation: RAT, LIVER, S-9, AROCLOR 1254 (10%), Method: PREINCUBATION",inactive; negative
same,mutagenic call,"Test System: AMES SALMONELLA TYPHIMURIUM, Strain/Indicator: TA1538, Metabolic Activation: RAT, LIVER, S-9, AROCLOR 1254, Method: STANDARD PLATE",inactive; negative
CCOC(=O)CNC(=O)CBr,mutagenic call,"Test System: AMES SALMONELLA TYPHIMURIUM, Strain/Indicator: TA100, Metabolic Activation: MOUSE, LIVER, S-9, AROCLOR 1254, Method: STANDARD PLATE",inactive; negative
same,mutagenic call,[7],inactive; negative
O=P(OCC(Br)CBr)(OCC(Br)CBr)OCC(Br)CBr (stereo not given),mutagenic call,[1],inactive; negative
same,mutagenic call,[7],inactive; negative
same,mutagenic call,"Test System: AMES SALMONELLA TYPHIMURIUM, Strain/Indicator: TA100, Metabolic Activation: RAT LIVER S-9, PHENOBARBITAL, Method: PREINCUBATION",active; positive
same,mutagenic call,"Test System: AMES SALMONELLA TYPHIMURIUM, Strain/Indicator: TA100, Metabolic Activation: RAT, LIVER, HEPATOCYTES, PHENOBARBITAL, Method: PREINCUBATION",active; positive
same,mutagenic call,"Test System: AMES SALMONELLA TYPHIMURIUM, Strain/Indicator: TA100, Metabolic Activation: RAT, LIVER, HEPATOCYTES, Method: PREINCUBATION",active; positive
same,mutagenic call,"Test System: AMES SALMONELLA TYPHIMURIUM, Strain/Indicator: TA100, Metabolic Activation: RAT, LIVER, MICROSOMES, AROCLOR 1254, Method: STANDARD PLATE",active; positive
same,mutagenic call,"Test System: AMES SALMONELLA TYPHIMURIUM, Strain/Indicator: TA100, Metabolic Activation: RAT, LIVER, MICROSOMES, PHENOBARBITAL, Method: PREINCUBATION",active; positive
same,mutagenic call,"Test System: AMES SALMONELLA TYPHIMURIUM, Strain/Indicator: TA100, Metabolic Activation: RAT, LIVER, MICROSOMES, Method: PREINCUBATION",active; positive
same,mutagenic call,"Test System: AMES SALMONELLA TYPHIMURIUM, Strain/Indicator: TA100, Metabolic Activation: RAT, LIVER, S-9, AROCLOR 1254, Method: STANDARD PLATE",active; positive
same,mutagenic call,"Test System: AMES SALMONELLA TYPHIMURIUM, Strain/Indicator: TA104, Metabolic Activation: RAT LIVER S-9, PHENOBARBITAL, Method: PREINCUBATION",active; positive
same,mutagenic call,"Test System: AMES SALMONELLA TYPHIMURIUM, Strain/Indicator: TA1535, Metabolic Activation: RAT, LIVER, S-9, AROCLOR 1254, Method: STANDARD PLATE",active; positive
same,mutagenic call,"Test System: CHINESE HAMSTER V-79, Strain/Indicator: V-79/6-THIOGUANINE, Metabolic Activation: RAT, LIVER, MICROSOMES, PHENOBARBITAL",active; positive
same,mutagenic call,"Test System: E. COLI, Strain/Indicator: WP2 UVRA, Metabolic Activation: MOUSE, LIVER, S-9, Method: STANDARD PLATE",inactive; negative
same,mutagenic call,[8],inactive; negative
same,mutagenic call,"Test System: E. COLI, Strain/Indicator: WP2 UVRA, Metabolic Activation: RAT, LIVER, S-9, Method: STANDARD PLATE",inactive; negative
same,mutagenic call,"Test System: UDS RAT HEPATOCYTES, Strain/Indicator: THY INCORP, Metabolic Activation: NONE",active; positive
same,mutagenic call,"Test System: UDS RODENT HEPATOCYTES, Strain/Indicator: THY INCORP (NON-S-PHASE), Metabolic Activation: RAT, LIVER, HEPATOCYTES, PHENOBARBITAL, Method: LIQUID SCINTILLATION COUNTING",active; positive
same,mutagenic call,"Test System: UDS RODENT HEPATOCYTES, Strain/Indicator: THY INCORP (NON-S-PHASE), Metabolic Activation: RAT, LIVER, HEPATOCYTES, Method: LIQUID SCINTILLATION COUNTING",active; positive
Cc1occc(=O)c1[O-].Cc1occc(=O)c1[O-].Cc1occc(=O)c1[O-].[Al+3],mutagenic call,"Test System: AMES SALMONELLA TYPHIMURIUM, Strain/Indicator: TA92, Metabolic Activation: NONE, Method: STANDARD PLATE",inactive; negative
same,mutagenic call,[6],inactive; negative
same,mutagenic call,[7],inactive; negative
same,mutagenic call,"Test System: AMES SALMONELLA TYPHIMURIUM, Strain/Indicator: TA104, Metabolic Activation: NONE, Method: STANDARD PLATE",inactive; negative
NNCCO,mutagenic call,"Test System: E. COLI, Strain/Indicator: WP2, Metabolic Activation: NONE, Method: STANDARD PLATE",active; positive
same,mutagenic call,"Test System: E. COLI, Strain/Indicator: WP2, Metabolic Activation: RAT, LIVER, Method: STANDARD PLATE",active; positive
same,mutagenic call,"Test System: E. COLI, Strain/Indicator: WP2HCR, Metabolic Activation: NONE, Method: STANDARD PLATE",active; positive
same,mutagenic call,"Test System: E. COLI, Strain/Indicator: WP2HCR, Metabolic Activation: S-9 MIX, Method: STANDARD PLATE",active; positive
same,mutagenic call,[8],active; positive
